This note sets out measurements from patent US5824540A, “Pseudomonas putida strain with dioxygenase activity” (Merck & Co., Inc., priority 1996, dated 1998).

This assay relates to P. putida F1. Nature of the assay: Growth of P. putida F1 test tube cultures in MMC medium with ICR 191 (mutation procedure 1). Type of assay: cell-based, Pseudomonas putida. As to conditions: 16 to 18 hour incubation, 30° C., dark. The method, then:
In procedure 1, cells were grown overnight in TSB at 30° C. and diluted 10^-4 with phosphate buffer (100 mM, pH 7.2). Several 18×150 mm test tubes containing 3 ml of MMC medium plus 0 (control), 10, 20, 30, 40, 50, 75, or 100 mg/l ICR 191 were inoculated with 0.1 ml of the diluted inoculum. Test tube cultures were incubated in the dark at 30° C. with 220 RPM agitation. […] The cells from 20 mg/l ICR 191 culture were harvested by centrifugation, washed twice with phosphate buffer.

As to `COc1ccc2nc3cc(Cl)ccc3c(NCCCNCCCl)c2c1` [ICR 191], under “10 mg/l ICR 191”, the effect on growth entry is “no detectable effect on growth”. In addition, the “level of growth relative to control” value (20 mg/l ICR 191) is recorded as “approximately half that of the control”. Moreover, the growth of culture entry is recorded as “a trace of growth” (30 mg/l ICR 191) and “completely inhibited growth” (ICR 191 concentrations above 30 mg/l).
